According to patent US10336739B2, “4-hydroxy-3-(heteroaryl)pyridine-2-one APJ agonists” (BRISTOL-MYERS SQUIBB COMPANY, priority 2015, dated 2019):

These molecules were tested against human APJ receptor (Homo sapiens (Human), UniProt P35414) (assay: Intracellular cAMP accumulation assay (APJ hcAMP, HTRF)). Details: HEK293 cells stably expressing human APJ receptor; inhibition of forskolin-mediated cAMP production; read-out: Human APJ cAMP EC50 Potency range.
Format: cell-based
Procedure, shortened: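 cAMP inhibition was quantified by HTRF against a cAMP standard curve, with EC50 fitted to a variable-slope sigmoidal curve. Compounds acted on 5,000 APJ-stable HEK293 cells for 30 minutes at room temperature alongside 2 μM forskolin and […] IBMX. Detection reagents were incubated 60 min.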

Chain of human APJ receptor (P35414 whole entry): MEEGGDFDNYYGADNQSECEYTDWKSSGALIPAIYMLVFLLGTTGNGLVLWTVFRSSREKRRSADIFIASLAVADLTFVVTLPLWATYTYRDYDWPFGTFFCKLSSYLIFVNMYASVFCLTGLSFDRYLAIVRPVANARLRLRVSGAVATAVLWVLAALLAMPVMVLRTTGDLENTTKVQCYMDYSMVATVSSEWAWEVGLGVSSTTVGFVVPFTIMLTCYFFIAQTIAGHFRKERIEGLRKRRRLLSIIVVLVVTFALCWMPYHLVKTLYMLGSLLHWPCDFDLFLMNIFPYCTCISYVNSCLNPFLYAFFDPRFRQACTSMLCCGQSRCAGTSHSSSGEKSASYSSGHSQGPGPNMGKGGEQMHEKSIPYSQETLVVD

Row | EC50 [nM] | Structure (SMILES)
1 | 0.01 to 10 | CCCCc1nc(O)c(-c2nnc(CC(=O)N(CC)CC)o2)c(O)c1-c1c(OC)cccc1OC [Example 177, 2-{5-[6-butyl-5-(2,6-dimethoxyphenyl)-2,4-dihydroxypyridin-3-yl]-1,3,4-oxadiazol-2-yl}-N,N-diethylacetamide]
2 | 10 to 100 | CCCCc1nc(O)c(-c2nnc(Cc3nnc(-c4ccc(Cl)cc4)o3)o2)c(O)c1-c1c(OC)cccc1OC [Example 205, 6-butyl-3-(5-{[5-(4-chlorophenyl)-1,3,4-oxadiazol-2-yl]methyl}-1,3,4-oxadiazol-2-yl)-5-(2,6-dimethoxyphenyl)pyridine-2,4-diol]

Same assay, conditions: HEK293 cells stably expressing human APJ receptor; inhibition of forskolin-mediated cAMP production; read-out: hAPJ cAMP EC50 Potency range

Row | EC50 [nM] | Structure (SMILES)
3 | 10 to 100 | CCCCc1nc(O)c(-c2nnc(CNC(=O)C(F)(F)F)o2)c(O)c1-c1c(OC)cccc1OC [Example 176, N-({5-[6-butyl-5-(2,6-dimethoxyphenyl)-2,4-dihydroxypyridin-3-yl]-1,3,4-oxadiazol-2-yl}methyl)-2,2,2-trifluoroacetamide]
4 | 10 to 100 | CCCCc1nc(O)c(-c2nnc(CC(=O)NCc3ccccn3)o2)c(O)c1-c1c(OC)cccc1OC [Example 178, 2-{5-[6-butyl-5-(2,6-dimethoxyphenyl)-2,4-dihydroxypyridin-3-yl]-1,3,4-oxadiazol-2-yl}-N-(pyridin-2-ylmethyl)acetamide]
5 | 0.01 to 10 | CCCCc1nc(O)c(-c2nnc(CC(=O)NC)o2)c(O)c1-c1c(OC)cccc1OC [Example 179, 2-{5-[6-butyl-5-(2,6-dimethoxyphenyl)-2,4-dihydroxypyridin-3-yl]-1,3,4-oxadiazol-2-yl}-N-methylacetamide]
6 | 10 to 100 | CCCCc1nc(O)c(-c2nnc(CC(N)=O)o2)c(O)c1-c1c(OC)cccc1OC [Example 180, 2-{5-[6-butyl-5-(2,6-dimethoxyphenyl)-2,4-dihydroxypyridin-3-yl]-1,3,4-oxadiazol-2-yl}acetamide]
7 | 0.01 to 10 | CCCCc1nc(O)c(-c2nnc(CC(=O)NC(C)C)o2)c(O)c1-c1c(OC)cccc1OC [Example 181, 2-{5-[6-butyl-5-(2,6-dimethoxyphenyl)-2,4-dihydroxypyridin-3-yl]-1,3,4-oxadiazol-2-yl}-N-(propan-2-yl)acetamide]
8 | 0.01 to 10 | CCCCc1nc(O)c(-c2nnc(CC(=O)N(C)C)o2)c(O)c1-c1c(OC)cccc1OC [Example 182, 2-{5-[6-butyl-5-(2,6-dimethoxyphenyl)-2,4-dihydroxypyridin-3-yl]-1,3,4-oxadiazol-2-yl}-N,N-dimethylacetamide]
9 | 10 to 100 | CCCCc1nc(O)c(-c2nnc(CC(=O)Nc3ccc(OC)cc3)o2)c(O)c1-c1c(OC)cccc1OC [Example 183, 2-{5-[6-butyl-5-(2,6-dimethoxyphenyl)-2,4-dihydroxypyridin-3-yl]-1,3,4-oxadiazol-2-yl}-N-(4-methoxyphenyl) acetamide]
10 | 0.01 to 10 | CCCCc1nc(O)c(-c2nnc(CC(=O)N3CCNC(=O)C3)o2)c(O)c1-c1c(OC)cccc1OC [Example 184, 4-(2-{5-[6-butyl-5-(2,6-dimethoxyphenyl)-2,4-dihydroxypyridin-3-yl]-1,3,4-oxadiazol-2-yl}acetyl) piperazin-2-one]
11 | 0.01 to 10 | CCCCc1nc(O)c(-c2nnc(CC(=O)NCc3ccccc3)o2)c(O)c1-c1c(OC)cccc1OC [Example 186, N-benzyl-2-{5-[6-butyl-5-(2,6-dimethoxyphenyl)-2,4-dihydroxypyridin-3-yl]-1,3,4-oxadiazol-2-yl}acetamide]
12 | 0.01 to 10 | CCCCc1nc(O)c(-c2nnc(CC(=O)NCC)o2)c(O)c1-c1c(OC)cccc1OC [Example 187, 2-{5-[6-butyl-5-(2,6-dimethoxyphenyl)-2,4-dihydroxypyridin-3-yl]-1,3,4-oxadiazol-2-yl}-N-ethylacetamide]
13 | 0.01 to 10 | CCCCc1nc(O)c(-c2nnc(CC(=O)NC3CC3)o2)c(O)c1-c1c(OC)cccc1OC [Example 188, 2-{5-[6-butyl-5-(2,6-dimethoxyphenyl)-2,4-dihydroxypyridin-3-yl]-1,3,4-oxadiazol-2-yl}-N-cyclo-propylacetamide]
14 | 0.01 to 10 | CCCCc1nc(O)c(-c2nnc(CC(=O)NCCC)o2)c(O)c1-c1c(OC)cccc1OC [Example 189, 2-{5-[6-butyl-5-(2,6-dimethoxyphenyl)-2,4-dihydroxypyridin-3-yl]-1,3,4-oxadiazol-2-yl}-N-propylacetamide]
15 | 0.01 to 10 | CCCCc1nc(O)c(-c2nnc(CC(=O)NCCF)o2)c(O)c1-c1c(OC)cccc1OC [Example 190, 2-{5-[6-butyl-5-(2,6-dimethoxyphenyl)-2,4-dihydroxypyridin-3-yl]-1,3,4-oxadiazol-2-yl}-N-(2-fluoroethyl) acetamide]
16 | 0.01 to 10 | CCCCc1nc(O)c(-c2nnc(CC(=O)NCC(F)F)o2)c(O)c1-c1c(OC)cccc1OC [Example 191, 2-{5-[6-butyl-5-(2,6-dimethoxyphenyl)-2,4-dihydroxypyridin-3-yl]-1,3,4-oxadiazol-2-yl}-N-(2,2-difluoroethyl) acetamide]
17 | 0.01 to 10 | CCCCc1nc(O)c(-c2nnc(CC(=O)NCC(F)(F)F)o2)c(O)c1-c1c(OC)cccc1OC [Example 192, 2-{5-[6-butyl-5-(2,6-dimethoxyphenyl)-2,4-dihydroxypyridin-3-yl]-1,3,4-oxadiazol-2-yl}-N-(2,2,2-trifluoroethyl) acetamide]
18 | 10 to 100 | CCCCc1nc(O)c(-c2nnc(CC(=O)NCCOC)o2)c(O)c1-c1c(OC)cccc1OC [Example 193, 2-{5-[6-butyl-5-(2,6-dimethoxyphenyl)-2,4-dihydroxypyridin-3-yl]-1,3,4-oxadiazol-2-yl}-N-(2-methoxyethyl) acetamide]
19 | 0.01 to 10 | CCCCc1nc(O)c(-c2nnc(CC(=O)N3CCCC3)o2)c(O)c1-c1c(OC)cccc1OC [Example 194, 2-{5-[6-butyl-5-(2,6-dimethoxyphenyl)-2,4-dihydroxypyridin-3-yl]-1,3,4-oxadiazol-2-yl}-1-(pyrrolidin-1-yl)ethan-1-one]
20 | 0.01 to 10 | CCCCc1nc(O)c(-c2nnc(CC(=O)N3CCCCC3)o2)c(O)c1-c1c(OC)cccc1OC [Example 195, 2-{5-[6-butyl-5-(2,6-dimethoxyphenyl)-2,4-dihydroxypyridin-3-yl]-1,3,4-oxadiazol-2-yl}-1-(piperidin-1-yl)ethan-1-one]
21 | 0.01 to 10 | CCCCc1nc(O)c(-c2nnc(CC(=O)N3CCOCC3)o2)c(O)c1-c1c(OC)cccc1OC [Example 196, 2-{5-[6-butyl-5-(2,6-dimethoxyphenyl)-2,4-dihydroxypyridin-3-yl]-1,3,4-oxadiazol-2-yl}-1-(morpholin-4-yl)ethan-1-one]
22 | 0.01 to 10 | CCCCNC(=O)Cc1nnc(-c2c(O)nc(CCCC)c(-c3c(OC)cccc3OC)c2O)o1 [Example 197, N-butyl-2-{5-[6-butyl-5-(2,6-dimethoxyphenyl)-2,4-dihydroxypyridin-3-yl]-1,3,4-oxadiazol-2-yl}acetamide]
23 | 10 to 100 | CCCCCNC(=O)Cc1nnc(-c2c(O)nc(CCCC)c(-c3c(OC)cccc3OC)c2O)o1 [Example 198, 2-{5-[6-butyl-5-(2,6-dimethoxyphenyl)-2,4-dihydroxypyridin-3-yl]-1,3,4-oxadiazol-2-yl}-N-pentylacetamide]
24 | 0.01 to 10 | CCCCc1nc(O)c(-c2nnc(CC(=O)N3CC(F)C3)o2)c(O)c1-c1c(OC)cccc1OC [Example 199, 2-{5-[6-butyl-5-(2,6-dimethoxyphenyl)-2,4-dihydroxypyridin-3-yl]-1,3,4-oxadiazol-2-yl}-1-(3-fluoroazetidin-1-yl)ethan-1-one]
25 | 0.01 to 10 | CCCCc1nc(O)c(-c2nnc(CC(=O)N3CC(F)(F)C3)o2)c(O)c1-c1c(OC)cccc1OC [Example 200, 2-{5-[6-butyl-5-(2,6-dimethoxyphenyl)-2,4-dihydroxypyridin-3-yl]-1,3,4-oxadiazol-2-yl}-1-(3,3-difluoroazetidin-1-yl)ethan-1-one]
26 | 0.01 to 10 | CCCCc1nc(O)c(-c2nnc(CC(=O)Nc3nccs3)o2)c(O)c1-c1c(OC)cccc1OC [Example 201, 2-{5-[6-butyl-5-(2,6-dimethoxyphenyl)-2,4-dihydroxypyridin-3-yl]-1,3,4-oxadiazol-2-yl}-N-(1,3-thiazol-2-yl)acetamide]
27 | 10 to 100 | CCCCc1nc(O)c(-c2nc(Cc3ccc(Cl)cc3)no2)c(O)c1-c1c(OC)cccc1OC [Example 203, 6-butyl-3-{3-[(4-chlorophenyl)methyl]-1,2,4-oxadiazol-5-yl}-5-(2,6-dimethoxyphenyl) pyridine-2,4-diol]
28 | 0.01 to 10 | CCCCc1nc(O)c(-c2nnc(Cc3nnc(-c4ccncc4)o3)o2)c(O)c1-c1c(OC)cccc1OC [Example 206, 6-butyl-5-(2,6-dimethoxyphenyl)-3-(5-{[5-(pyridin-4-yl)-1,3,4-oxadiazol-2-yl]methyl}-1,3,4-oxadiazol-2-yl)pyridine-2,4-diol]
29 | 0.01 to 10 | CCCCc1nc(O)c(-c2nnc(Cc3nnc(-c4ccccn4)o3)o2)c(O)c1-c1c(OC)cccc1OC [Example 207, 6-butyl-5-(2,6-dimethoxyphenyl)-3-(5-{[5-(pyridin-2-yl)-1,3,4-oxadiazol-2-yl]methyl}-1,3,4-oxadiazol-2-yl)pyridine-2,4-diol]
30 | 0.01 to 10 | CCCCc1nc(O)c(-c2nnc(Cc3nnc(-c4ccccc4Cl)o3)o2)c(O)c1-c1c(OC)cccc1OC [Example 208, 6-butyl-3-(5-{[5-(2-chlorophenyl)-1,3,4-oxadiazol-2-yl]methyl}-1,3,4-oxadiazol-2-yl)-5-(2,6-dimethoxyphenyl) pyridine-2,4-diol]

Same assay, conditions: hAPJ cAMP EC50 Potency range (nM), HEK293 cells stably expressing human APJ receptor; inhibition of forskolin-mediated cAMP production

Row | Structure (SMILES) | EC50 [nM]
31 | CCCCc1nc(O)c(-c2nnc(CC(=O)N3CCN(C)CC3)o2)c(O)c1-c1c(OC)cccc1OC [Example 185, 2-{5-[6-butyl-5-(2,6-dimethoxyphenyl)-2,4-dihydroxypyridin-3-yl]-1,3,4-oxadiazol-2-yl}-1-(4-methylpiperazin-1-yl)ethan-1-one] | 10 to 100
